# Laboratory results as given in patent publication US20160271263A1 (Novo Nordisk A/S, priority 2010, published 2016).
# pEC50: −log10 of the molar value. Numbered stars: 1 amine (or outer) side, 2 acyl side, 3 side chain; on linkers, the order of the positions; unused ones are H or OH. Side chains are listed from the residue outwards. Peptide text beside a SMILES is read from it. * marks the point of attachment. C18 diacid = O=C(O)CCCCCCCCCCCCCCCCC(=O)*; γGlu = O=C(O)[C@H](CCC(=O)[*:2])N[*:1]; AEEA = NCCOCCOCC(=O)O
# Molecular target: glucagon receptor (Homo sapiens, UniProt P47871)
# Sequence (P47871 26-477): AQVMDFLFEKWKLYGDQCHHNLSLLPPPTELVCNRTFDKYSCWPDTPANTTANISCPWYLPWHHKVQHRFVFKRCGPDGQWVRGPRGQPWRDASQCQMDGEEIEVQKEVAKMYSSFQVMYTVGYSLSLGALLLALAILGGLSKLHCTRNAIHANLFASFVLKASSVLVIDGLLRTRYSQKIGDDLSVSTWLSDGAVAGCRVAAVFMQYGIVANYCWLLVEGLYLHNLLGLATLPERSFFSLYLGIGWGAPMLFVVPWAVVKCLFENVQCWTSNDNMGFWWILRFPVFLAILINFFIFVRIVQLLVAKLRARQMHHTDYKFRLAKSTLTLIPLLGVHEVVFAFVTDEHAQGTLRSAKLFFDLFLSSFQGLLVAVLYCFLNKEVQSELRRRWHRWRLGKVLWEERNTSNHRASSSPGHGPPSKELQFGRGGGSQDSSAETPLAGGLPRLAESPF
# Assay: cell-based
# Procedure: The cells (14000 per well) were incubated (37° C., 5% CO2) overnight in 384-well plates. Next day the cells were loaded with a calcium responsive dye that only distributed into the cytoplasm. Probenecid, an inhibitor of the organic anion transporter, was added to prevent the dye from leaving the cell. A PDE inhibitor was added to prevent formatted cAMP from being degraded. […] End point data were collected after 6 minutes. An increase in intracellular cAMP was proportional to an increased in calcium concentrations in the cytoplasm. […] EC50-values were calculated in Prism5.
row,Structure (SMILES),pEC50
1,"CC(C)C[C@H](NC(=O)[C@H](Cc1ccc(O)cc1)NC(=O)[C@H](CCCNC(=N)N)NC(=O)[C@H](CO)NC(=O)[C@H](Cc1ccc(O)cc1)NC(=O)[C@H](CC(=O)O)NC(=O)[C@H](CO)NC(=O)[C@@H](NC(=O)[C@H](Cc1ccccc1)NC(=O)[C@@H](NC(=O)CNC(=O)[C@H](CCC(N)=O)NC(=O)[C@H](CO)NC(=O)[C@@H](N)Cc1c[nH]cn1)[C@@H](C)O)[C@@H](C)O)C(=O)N[C@@H](CC(=O)O)C(=O)N[C@@H](CO)C(=O)N[C@@H](CCCNC(=N)N)C(=O)N[C@@H](CCCNC(=N)N)C(=O)N[C@@H](C)C(=O)N[C@@H](CCC(N)=O)C(=O)N[C@@H](CC(=O)O)C(=O)N[C@@H](Cc1ccccc1)C(=O)N[C@H](C(=O)N[C@@H](CCCCNC(=O)CC[C@H](NC(=O)CC[C@H](NC(=O)COCCOCCNC(=O)COCCOCCNC(=O)CC[C@H](NC(=O)CCCCCCCCCCCCCCCCC(=O)O)C(=O)O)C(=O)O)C(=O)O)C(=O)N[C@@H](Cc1c[nH]c2ccccc12)C(=O)N[C@@H](CC(C)C)C(=O)N[C@@H](CC(C)C)C(=O)N[C@@H](CC(N)=O)C(=O)N[C@H](C(=O)O)[C@@H](C)O)C(C)C [Example 72, N^ε24-[(4S)-4-carboxy-4-[[(4S)-4-carboxy-4-[[2-[2-[2-[[2-[2-[2-[[(4S)-4-carboxy-4-(17-carboxyheptadecanoylamino)butanoyl]amino]ethoxy]ethoxy]acetyl]amino]ethoxy]ethoxy]acetyl]amino]butanoyl]amino]butanoyl]-[Arg^12,Lys^24,Leu^27]-Glucagon] (H-HSQGTFTSDYSRYLDSRRAQDFVK([γGlu-γGlu-AEEA-AEEA-γGlu-C18 diacid])WLLNT-OH; N-terminus and C-terminus assumed)",9.90
2,"CC(C)C[C@H](NC(=O)[C@H](Cc1ccc(O)cc1)NC(=O)[C@H](CCCCN)NC(=O)[C@H](CO)NC(=O)[C@H](Cc1ccc(O)cc1)NC(=O)[C@H](CC(=O)O)NC(=O)[C@H](CO)NC(=O)[C@@H](NC(=O)[C@H](Cc1ccccc1)NC(=O)[C@@H](NC(=O)CNC(=O)[C@H](CCC(N)=O)NC(=O)[C@H](CO)NC(=O)[C@@H](N)Cc1c[nH]cn1)[C@@H](C)O)[C@@H](C)O)C(=O)N[C@@H](CC(=O)O)C(=O)N[C@@H](CO)C(=O)N[C@@H](CCCNC(=N)N)C(=O)N[C@@H](CCCNC(=N)N)C(=O)N[C@@H](C)C(=O)N[C@@H](CCC(N)=O)C(=O)N[C@@H](CC(=O)O)C(=O)N[C@@H](Cc1ccccc1)C(=O)N[C@H](C(=O)N[C@@H](CCC(N)=O)C(=O)N[C@@H](CCCCNC(=O)CC[C@H](NC(=O)CC[C@H](NC(=O)COCCOCCNC(=O)COCCOCCNC(=O)CC[C@H](NC(=O)CCCCCCCCCCCCCCCCC(=O)O)C(=O)O)C(=O)O)C(=O)O)C(=O)N[C@@H](CC(C)C)C(=O)N[C@@H](CC(C)C)C(=O)N[C@@H](CC(N)=O)C(=O)N[C@H](C(=O)O)[C@@H](C)O)C(C)C [Example 76, N^ε25-[(4S)-4-carboxy-4-[[(4S)-4-carboxy-4-[[2-[2-[2-[[2-[2-[2-[[(4S)-4-carboxy-4-(17-carboxyheptadecanoylamino)butanoyl]amino]ethoxy]ethoxy]acetyl]amino]ethoxy]ethoxy]acetyl]amino]butanoyl]amino]butanoyl]-[Lys^25,Leu^27]-Glucagon]",9.01
3,"CC(C)C[C@H](NC(=O)[C@H](Cc1ccc(O)cc1)NC(=O)[C@H](CCCCN)NC(=O)[C@H](CO)NC(=O)[C@H](Cc1ccc(O)cc1)NC(=O)[C@H](CC(=O)O)NC(=O)[C@H](CO)NC(=O)[C@@H](NC(=O)[C@H](Cc1ccccc1)NC(=O)[C@@H](NC(=O)CNC(=O)[C@H](CCC(N)=O)NC(=O)[C@H](CO)NC(=O)[C@@H](N)Cc1c[nH]cn1)[C@@H](C)O)[C@@H](C)O)C(=O)N[C@@H](CC(=O)O)C(=O)N[C@@H](CCCCNC(=O)COCCOCCNC(=O)COCCOCCNC(=O)CC[C@H](NC(=O)CC[C@H](NC(=O)CC[C@H](NC(=O)CCCCCCCCCCCCCCCCC(=O)O)C(=O)O)C(=O)O)C(=O)O)C(=O)N[C@@H](CCCNC(=N)N)C(=O)N[C@@H](CCCNC(=N)N)C(=O)N[C@@H](C)C(=O)N[C@@H](CCC(N)=O)C(=O)N[C@@H](CC(=O)O)C(=O)N[C@@H](Cc1ccccc1)C(=O)N[C@H](C(=O)N[C@@H](CCC(N)=O)C(=O)N[C@@H](Cc1c[nH]c2ccccc12)C(=O)N[C@@H](CC(C)C)C(=O)N[C@@H](CC(C)C)C(=O)N[C@@H](CC(N)=O)C(=O)N[C@H](C(=O)O)[C@@H](C)O)C(C)C [Example 77, N^ε16-[2-[2-[2-[[2-[2-[2-[[(4S)-4-carboxy-4-[[(4S)-4-carboxy-4-[[(4S)-4-carboxy-4-(17-carboxyheptadecanoylamino)butanoyl]amino]butanoyl]amino]butanoyl]amino]ethoxy]ethoxy]acetyl]amino]ethoxy]ethoxy]acetyl]-[Lys^16,Leu^27]-Glucagon] (H-HSQGTFTSDYSKYLDK([AEEA-AEEA-γGlu-γGlu-γGlu-C18 diacid])RRAQDFVQWLLNT-OH; N-terminus and C-terminus assumed)",10.09
4,"CC(C)C[C@H](NC(=O)[C@H](Cc1ccc(O)cc1)NC(=O)[C@H](CCCCN)NC(=O)[C@H](CO)NC(=O)[C@H](Cc1ccc(O)cc1)NC(=O)[C@H](CC(=O)O)NC(=O)[C@H](CO)NC(=O)[C@@H](NC(=O)[C@H](Cc1ccccc1)NC(=O)[C@@H](NC(=O)CNC(=O)[C@H](CCC(N)=O)NC(=O)[C@H](CO)NC(=O)[C@@H](N)Cc1c[nH]cn1)[C@@H](C)O)[C@@H](C)O)C(=O)N[C@@H](CC(=O)O)C(=O)N[C@@H](CCCCNC(=O)CC[C@H](NC(=O)COCCOCCNC(=O)COCCOCCNC(=O)CC[C@H](NC(=O)CC[C@H](NC(=O)CCCCCCCCCCCCCCCCC(=O)O)C(=O)O)C(=O)O)C(=O)O)C(=O)N[C@@H](CCCNC(=N)N)C(=O)N[C@@H](CCCNC(=N)N)C(=O)N[C@@H](C)C(=O)N[C@@H](CCC(N)=O)C(=O)N[C@@H](CC(=O)O)C(=O)N[C@@H](Cc1ccccc1)C(=O)N[C@H](C(=O)N[C@@H](CCC(N)=O)C(=O)N[C@@H](Cc1c[nH]c2ccccc12)C(=O)N[C@@H](CC(C)C)C(=O)N[C@@H](CC(C)C)C(=O)N[C@@H](CC(N)=O)C(=O)N[C@H](C(=O)O)[C@@H](C)O)C(C)C [Example 78, N^ε16-[(4S)-4-carboxy-4-[[2-[2-[2-[[2-[2-[2-[[(4S)-4-carboxy-4-[[(4S)-4-carboxy-4-(17-carboxyheptadecanoylamino)butanoyl]amino]butanoyl]amino]ethoxy]ethoxy]acetyl]amino]ethoxy]ethoxy]acetyl]amino]butanoyl]-[Lys^16,Leu^27]-Glucagon] (H-HSQGTFTSDYSKYLDK([γGlu-AEEA-AEEA-γGlu-γGlu-C18 diacid])RRAQDFVQWLLNT-OH; N-terminus and C-terminus assumed)",9.91
5,"CC(C)C[C@H](NC(=O)[C@H](Cc1ccc(O)cc1)NC(=O)[C@H](CCCCN)NC(=O)[C@H](CO)NC(=O)[C@H](Cc1ccc(O)cc1)NC(=O)[C@H](CC(=O)O)NC(=O)[C@H](CO)NC(=O)[C@@H](NC(=O)[C@H](Cc1ccccc1)NC(=O)[C@@H](NC(=O)CNC(=O)[C@H](CCC(N)=O)NC(=O)[C@H](CO)NC(=O)[C@@H](N)Cc1c[nH]cn1)[C@@H](C)O)[C@@H](C)O)C(=O)N[C@@H](CC(=O)O)C(=O)N[C@@H](CO)C(=O)N[C@@H](CCCNC(=N)N)C(=O)N[C@@H](CCCNC(=N)N)C(=O)N[C@@H](C)C(=O)N[C@@H](CCC(N)=O)C(=O)N[C@@H](CC(=O)O)C(=O)N[C@@H](Cc1ccccc1)C(=O)N[C@H](C(=O)N[C@@H](CCC(N)=O)C(=O)N[C@@H](Cc1c[nH]c2ccccc12)C(=O)N[C@@H](CC(C)C)C(=O)N[C@@H](CC(C)C)C(=O)N[C@@H](CCCCNC(=O)CC[C@H](NC(=O)CC[C@H](NC(=O)CC[C@H](NC(=O)CCCCCCCCCCCCCCCCC(=O)O)C(=O)O)C(=O)O)C(=O)O)C(=O)N[C@H](C(=O)O)[C@@H](C)O)C(C)C [Example 79, N^ε28-[(4S)-4-carboxy-4-[[(4S)-4-carboxy-4-[[(4S)-4-carboxy-4-(17-carboxyheptadecanoylamino)butanoyl]amino]butanoyl]amino]butanoyl]-[Leu^27,Lys^28]-Glucagon]",9.85
6,"CC(C)C[C@H](NC(=O)[C@H](Cc1ccc(O)cc1)NC(=O)[C@H](CCCCNC(=O)CC[C@H](NC(=O)CC[C@H](NC(=O)COCCOCCNC(=O)COCCOCCNC(=O)CC[C@H](NC(=O)CCCCCCCCCCCCCCCCC(=O)O)C(=O)O)C(=O)O)C(=O)O)NC(=O)[C@H](CO)NC(=O)[C@H](Cc1ccc(O)cc1)NC(=O)[C@H](CC(=O)O)NC(=O)[C@H](CO)NC(=O)[C@@H](NC(=O)[C@H](Cc1ccccc1)NC(=O)[C@@H](NC(=O)CNC(=O)[C@H](CCC(N)=O)NC(=O)[C@H](CO)NC(=O)[C@@H](N)Cc1c[nH]cn1)[C@@H](C)O)[C@@H](C)O)C(=O)N[C@@H](CC(=O)O)C(=O)N[C@@H](CO)C(=O)N[C@@H](CCCNC(=N)N)C(=O)N[C@@H](CCCNC(=N)N)C(=O)N[C@@H](C)C(=O)N[C@@H](CCC(N)=O)C(=O)N[C@@H](CC(=O)O)C(=O)N[C@@H](Cc1ccccc1)C(=O)N[C@H](C(=O)N[C@@H](CCC(N)=O)C(=O)N[C@@H](Cc1c[nH]c2ccccc12)C(=O)N[C@@H](CC(C)C)C(=O)N[C@@H](CC(C)C)C(=O)N[C@@H](CC(N)=O)C(=O)N1CCC[C@H]1C(=O)O)C(C)C [Example 80, N^ε12-[(4S)-4-carboxy-4-[[(4S)-4-carboxy-4-[[2-[2-[2-[[2-[2-[2-[[(4S)-4-carboxy-4-(17-carboxyheptadecanoylamino)butanoyl]amino]ethoxy]ethoxy]acetyl]amino]ethoxy]ethoxy]acetyl]amino]butanoyl]amino]butanoyl]-[Leu^27,Pro^29]-Glucagon]",8.80
